# Results from PMC6927504, “Screening of House Dust from Chinese Homes for Chemicals with Liver X Receptors Binding Activities and Characterization of Atherosclerotic Activity Using an in Vitro Macrophage Cell Line and ApoE^−/− Mice” (Environmental Health Perspectives, 2019).
# Columns and labels:
# [1] = system: ApoE−/− mice; assay: Immunofluorescence staining of aortic root sections (MOMA-2, SMCα-Actin) in ApoE−/− mice; type: in vivo, mouse; settings: 13 weeks
# Description: All experiments related to animals were approved by the institutional animal care and use committee of Peking University and followed the guidelines for animal experiments of the university as well as for experimental animals in China. The biological effect size of the animal experiments was based on the previous paper ([Negro Silva et al. 2017]). C57BL/6 (12 weeks old) and ApoE^−/− mice (12 weeks old) were obtained from the Beijing Vital River Laboratory Animal Technology Company. Mice used in the experiments were acclimated to the housing unit 2 weeks before they were used for experiments, and they were randomly assigned to control or TPHP treatment groups. Five animals were housed to a cage, and mice were acclimatized to the controlled environment (temperature: 22±2°C; relative humidity: 40–60%; artificial lighting: 12 h:12 h light/dark). Mice received diet and drinking water ad libitum. Body weight (BW) was measured every week during the dosing period. Forty-five C57BL/6 mice and 27 ApoE^−/− mice were used in this study. Animal protocol 1: Male C57BL/6 mice (five mice per group) were fed a basic diet (Laboratory Animal Center of the Academy of Military Medical Sciences, China). On Day 0, mice were stimulated with paraffin oil by intraperitoneal injection. From Day 1 to Day 7, mice were exposed to corn oil (control) or TPHP (dissolved in corn oil) at 40 or 200mg/kg BW by daily oral gavage. The volume of the corn oil or TPHP in corn oil administered was 5mL/kg BW. On Day 8, after the mice were anesthetized by sodium pentobarbital via intramuscular injection, peritoneal macrophages were harvested from peritoneal lavage with 4mL pre-warmed DMEM-F12 (containing 10% FBS) using a 25-gauge needle; 5–10 min later, 3–3.5mL peritoneal fluid was collected, and the cells were isolated by centrifuge at 1,000 rpm for 5 min. […] Considering that this study assessed the effects of short-term exposure to TPHP, whereas humans are exposed to TPHP over a lifelong period, the present study used exposure doses that were higher than that of human exposure from house dust. […]
# [2] = system: RAW264.7 macrophages; assay: Cellular NBD-cholesterol efflux assay in RAW264.7 macrophages; type: cell-based
# Method: RAW264.7 cells were obtained from the National Infrastructure of Cell Line Resource of Beijing, China, and the cells used for the experiment were cultured for at least three passages. Dulbecco’s Modified Eagle’s Medium (DMEM)-F12 medium containing 10% fetal bovine serum (FBS) was employed to culture the RAW264.7 cells. RAW264.7 cells were incubated at 37°C with 5% carbon dioxide. The RAW264.7 cells were plated at 2.5×10^5 cells/well (6-well plates), 6.0×10^4 cells/well (24-well plates), and 10^4 cells/well (96-well plates). […] Then the cells were used for the quantitative reverse transcription (qRT)-PCR, cellular cholesterol efflux assay, and foam cell formation experiment.
# RAW264.7 cells or mouse peritoneal macrophages were plated in 96-well plates at 10^4 cells/well and cultured with DMEM-F12 containing 10% FBS and 1μg/mL 22-[N-(7-nitrobenz-2-oxa-1,3-diazol-4-yl)amino]-23,24-bisnor-5-cholen-3β-Ol (NBD-cholesterol) for 24 h. […] NBD-cholesterol in the medium and cell lysis buffer were measured, respectively, using a Tecan Infinite® M1000Pro Microplate Reader (Tecan Group Ltd.) at 485-nm excitation wavelength and 535-nm emission wavelength. Cholesterol efflux was expressed as a percentage of fluorescence in the medium relative to the total amount of fluorescence.
smiles,measurement,setting,value
"O=P(Oc1ccccc1)(Oc1ccccc1)Oc1ccccc1 [TPHP, triphenyl phosphate]","Macrophage content (MOMA-2) in aortic root lesions, higher than control","[1]; 10 mg/kg BW, p<0.05",1.9 fold
same,"Macrophage content (MOMA-2) in aortic root lesions, higher than control","[1]; 40 mg/kg BW, p<0.01",3.1 fold
same,Abundance of SMCs (SMCα-Actin) in the aortic roots versus control,[1]; 10 and 40 mg/kg BW,a significant difference was not found
same,NBD-cholesterol efflux mediated by ApoA-I,"[2]; 100–20,000 nM",significantly inhibited
same,NBD-cholesterol efflux mediated by HDL,"[2]; 1,000–20,000 nM",significantly inhibited
